According to patent US10994015B2, “EGFR proteolysis targeting chimeric molecules and associated methods of use” (Arvinas Operations, Inc., priority 2016, dated 2021):

Experiments:
[1] = molecular target: EGFR L858R/T790M double mutant (H1975) (Homo sapiens (Human), UniProt P00533, L858R/T790M); test: EGFR protein degradation assay (Western blot); assay type: cell-based; settings: 72 hours, 300 nM to 10 nM
How it was run: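 Cells carrying the relevant EGFR form were plated at 300,000 cells per well in 6-well plates and left to attach overnight. After washing in ice-cold PBS, cells were lysed in 400 μl lysis buffer with protease inhibitors, scraped, and clarified at 10 000 rpm for 10 minutes. EGFR levels were then assessed by Western blot with tubulin as loading control.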

EGFR Exon 20 ASV (HeLa*) = EGFR Exon 20 ASV (HeLa*) (Homo sapiens (Human), UniProt P00533, DUP767-769); test: EGFR protein degradation assay (Western blot); assay type: cell-based; settings: 72 hours, 300 nM to 10 nM
[2] = molecular target: EGFR-wt (MDA-MB-231 or MCF7 or A549 or OVCAR8) (Homo sapiens (Human), UniProt P00533); test: EGFR protein degradation assay (Western blot); assay type: cell-based; settings: 72 hours, 300 nM to 10 nM
Chain of EGFR-wt (MDA-MB-231 or MCF7 or A549 or OVCAR8) (P00533 25-1210): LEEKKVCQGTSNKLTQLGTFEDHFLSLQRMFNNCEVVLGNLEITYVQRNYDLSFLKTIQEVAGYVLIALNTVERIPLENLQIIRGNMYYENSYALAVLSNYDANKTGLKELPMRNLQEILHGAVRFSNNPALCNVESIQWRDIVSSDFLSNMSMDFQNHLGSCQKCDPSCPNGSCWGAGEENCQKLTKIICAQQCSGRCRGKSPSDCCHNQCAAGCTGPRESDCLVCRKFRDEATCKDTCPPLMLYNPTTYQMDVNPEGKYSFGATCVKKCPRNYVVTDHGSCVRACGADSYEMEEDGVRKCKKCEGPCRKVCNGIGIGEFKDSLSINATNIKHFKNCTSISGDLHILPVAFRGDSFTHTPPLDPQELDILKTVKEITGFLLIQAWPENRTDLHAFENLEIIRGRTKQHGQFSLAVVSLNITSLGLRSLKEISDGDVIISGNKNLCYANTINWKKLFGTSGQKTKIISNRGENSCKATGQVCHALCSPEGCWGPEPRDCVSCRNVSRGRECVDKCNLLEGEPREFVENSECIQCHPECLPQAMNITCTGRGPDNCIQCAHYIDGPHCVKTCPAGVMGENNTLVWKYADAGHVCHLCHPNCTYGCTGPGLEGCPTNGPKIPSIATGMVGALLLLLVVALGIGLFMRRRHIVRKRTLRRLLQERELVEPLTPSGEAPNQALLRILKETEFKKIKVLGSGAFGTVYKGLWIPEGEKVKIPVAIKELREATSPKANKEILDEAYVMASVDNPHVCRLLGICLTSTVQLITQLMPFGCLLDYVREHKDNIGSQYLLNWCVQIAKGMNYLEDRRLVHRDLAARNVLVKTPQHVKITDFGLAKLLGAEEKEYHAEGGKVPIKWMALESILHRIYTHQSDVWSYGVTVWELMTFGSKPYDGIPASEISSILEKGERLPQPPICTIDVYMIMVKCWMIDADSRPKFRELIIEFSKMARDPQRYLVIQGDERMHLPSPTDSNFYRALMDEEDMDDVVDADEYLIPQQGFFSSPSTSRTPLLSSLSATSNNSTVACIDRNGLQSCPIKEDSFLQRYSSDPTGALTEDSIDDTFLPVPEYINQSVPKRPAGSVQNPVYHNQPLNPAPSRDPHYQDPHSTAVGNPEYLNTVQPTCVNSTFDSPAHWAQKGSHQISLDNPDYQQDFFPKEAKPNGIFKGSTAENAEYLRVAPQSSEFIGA
How it was run: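 Cells carrying the relevant EGFR form were plated at 300,000 per well in 6-well plates and left overnight to attach. For harvest, cells were rinsed once in ice-cold PBS and lysed in 400 μl lysis buffer containing protease inhibitors. Lysates were cleared at 10 000 rpm for 10 minutes and their protein content measured by BCA. Then 10 μg per sample was separated by SDS/PAGE at 165V for 2 hours, and EGFR was detected by ECL on a Chemidoc.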

EGFR Exon20NPG = EGFR Exon20NPG (Homo sapiens (Human), UniProt P00533, INS770NPG); test: TR-FRET assay for ERBB kinases; assay type: biochemical; settings: geometric mean if measured more than once
Chain of EGFR Exon20NPG (P00533 other isoform, or with tags, fused parts or gaps del 1-694/ins NPG behind 770 limits assumed): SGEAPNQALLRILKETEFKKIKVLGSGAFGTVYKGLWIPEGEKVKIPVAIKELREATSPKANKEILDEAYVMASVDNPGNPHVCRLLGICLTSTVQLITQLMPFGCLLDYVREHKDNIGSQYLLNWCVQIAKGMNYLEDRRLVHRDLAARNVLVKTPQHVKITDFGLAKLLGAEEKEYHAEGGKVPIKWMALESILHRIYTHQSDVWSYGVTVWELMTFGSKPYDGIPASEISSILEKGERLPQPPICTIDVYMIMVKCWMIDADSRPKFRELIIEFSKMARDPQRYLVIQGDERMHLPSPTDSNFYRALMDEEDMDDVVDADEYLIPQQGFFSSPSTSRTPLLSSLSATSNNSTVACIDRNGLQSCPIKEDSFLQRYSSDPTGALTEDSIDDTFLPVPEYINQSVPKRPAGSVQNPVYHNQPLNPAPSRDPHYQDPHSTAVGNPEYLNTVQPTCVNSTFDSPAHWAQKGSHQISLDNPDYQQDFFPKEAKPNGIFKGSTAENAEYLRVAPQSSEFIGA
How it was run: (§1)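 Compounds pre-incubated 10 min with kinase in HEPES pH 7.5 buffer (MgCl2, DTT, Pluronic), then reaction started with substrate mix (3 mM ATP, 30 µM fluorescein-poly-GluTyr, stock levels) for 10 min at room temperature. EDTA-quenched, detected by Tb-pY20 antibody TR-FRET (520/490 nm emission).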

EGFR Δ19/746/750 = EGFR Δ19/746/750 (Homo sapiens (Human), UniProt P00533, DEL746-750); test: TR-FRET assay for ERBB kinases; assay type: biochemical; settings: geometric mean if measured more than once
Chain of EGFR Δ19/746/750 (P00533 other isoform, or with tags, fused parts or gaps del 1-694/del 746-750 limits assumed): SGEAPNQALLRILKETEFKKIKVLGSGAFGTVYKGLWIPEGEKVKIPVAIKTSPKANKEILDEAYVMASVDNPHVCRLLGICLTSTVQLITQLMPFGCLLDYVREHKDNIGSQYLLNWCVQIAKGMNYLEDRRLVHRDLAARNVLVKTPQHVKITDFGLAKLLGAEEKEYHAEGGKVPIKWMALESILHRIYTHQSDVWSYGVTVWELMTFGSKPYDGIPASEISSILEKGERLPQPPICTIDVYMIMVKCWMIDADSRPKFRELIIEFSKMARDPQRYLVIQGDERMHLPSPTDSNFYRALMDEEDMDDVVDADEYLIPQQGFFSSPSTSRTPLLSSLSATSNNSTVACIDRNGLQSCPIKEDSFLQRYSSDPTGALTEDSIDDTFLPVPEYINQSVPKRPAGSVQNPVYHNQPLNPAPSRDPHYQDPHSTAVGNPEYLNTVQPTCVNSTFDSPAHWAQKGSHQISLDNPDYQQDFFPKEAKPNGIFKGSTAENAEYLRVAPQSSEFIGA
How it was run: as §1

HER2WT = HER2WT (Homo sapiens (Human), UniProt P04626); test: TR-FRET assay for ERBB kinases; assay type: biochemical; settings: geometric mean if measured more than once
How it was run: as §1

EGFR L858R = EGFR L858R (Homo sapiens (Human), UniProt P00533, L858R); test: TR-FRET assay for ERBB kinases; assay type: biochemical; settings: geometric mean if measured more than once
How it was run: as §1

EGFR Δ19/746/750 T790M = EGFR Δ19/746/750 T790M (Homo sapiens (Human), UniProt P00533, DEL746-750/T790M); test: TR-FRET assay for ERBB kinases; assay type: biochemical; settings: geometric mean if measured more than once
Chain of EGFR Δ19/746/750 T790M (P00533 other isoform, or with tags, fused parts or gaps T790M/del 1-694/del 746-750 limits assumed): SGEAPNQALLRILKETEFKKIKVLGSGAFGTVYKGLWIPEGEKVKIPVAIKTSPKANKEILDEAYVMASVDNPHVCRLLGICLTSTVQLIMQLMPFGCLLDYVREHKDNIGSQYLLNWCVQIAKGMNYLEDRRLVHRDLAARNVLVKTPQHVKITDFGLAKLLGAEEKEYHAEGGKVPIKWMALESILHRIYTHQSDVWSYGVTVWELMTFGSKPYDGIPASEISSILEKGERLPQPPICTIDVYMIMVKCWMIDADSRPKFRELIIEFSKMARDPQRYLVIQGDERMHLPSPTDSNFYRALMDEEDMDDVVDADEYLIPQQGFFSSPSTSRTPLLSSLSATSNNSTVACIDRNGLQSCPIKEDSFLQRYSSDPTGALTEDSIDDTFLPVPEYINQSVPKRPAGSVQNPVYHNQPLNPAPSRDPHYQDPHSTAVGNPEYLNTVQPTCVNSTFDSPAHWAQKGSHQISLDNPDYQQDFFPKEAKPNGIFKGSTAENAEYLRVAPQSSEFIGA
How it was run: as §1

EGFR WT = EGFR WT (Homo sapiens (Human), UniProt P00533); test: TR-FRET assay for ERBB kinases; assay type: biochemical; settings: geometric mean if measured more than once
Chain of EGFR WT (P00533 25-1210): as the sequence (P00533 25-1210) above
How it was run: (§2)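 Read-out is TR-FRET between a terbium anti-phosphotyrosine (pY20) antibody and phosphorylated fluorescein-labelled poly-GluTyr, excited at 340 nm with donor 490 nm and acceptor 520 nm emission. Phosphorylation ran 10 min at room temperature after a 10 min compound–enzyme pre-incubation. The substrate mix contained 3 mM ATP.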

EGFR L858R/T790M = EGFR L858R/T790M (Homo sapiens (Human), UniProt P00533, L858R/T790M); test: TR-FRET assay for ERBB kinases; assay type: biochemical; settings: geometric mean if measured more than once
How it was run: as §2

EGFR L858R/T790M/C797S = EGFR L858R/T790M/C797S (Homo sapiens (Human), UniProt P00533, C797S/L858R/T790M); test: TR-FRET assay for ERBB kinases; assay type: biochemical; settings: geometric mean if measured more than once
Chain of EGFR L858R/T790M/C797S (P00533 25-1210 T790M/C797S/L858R): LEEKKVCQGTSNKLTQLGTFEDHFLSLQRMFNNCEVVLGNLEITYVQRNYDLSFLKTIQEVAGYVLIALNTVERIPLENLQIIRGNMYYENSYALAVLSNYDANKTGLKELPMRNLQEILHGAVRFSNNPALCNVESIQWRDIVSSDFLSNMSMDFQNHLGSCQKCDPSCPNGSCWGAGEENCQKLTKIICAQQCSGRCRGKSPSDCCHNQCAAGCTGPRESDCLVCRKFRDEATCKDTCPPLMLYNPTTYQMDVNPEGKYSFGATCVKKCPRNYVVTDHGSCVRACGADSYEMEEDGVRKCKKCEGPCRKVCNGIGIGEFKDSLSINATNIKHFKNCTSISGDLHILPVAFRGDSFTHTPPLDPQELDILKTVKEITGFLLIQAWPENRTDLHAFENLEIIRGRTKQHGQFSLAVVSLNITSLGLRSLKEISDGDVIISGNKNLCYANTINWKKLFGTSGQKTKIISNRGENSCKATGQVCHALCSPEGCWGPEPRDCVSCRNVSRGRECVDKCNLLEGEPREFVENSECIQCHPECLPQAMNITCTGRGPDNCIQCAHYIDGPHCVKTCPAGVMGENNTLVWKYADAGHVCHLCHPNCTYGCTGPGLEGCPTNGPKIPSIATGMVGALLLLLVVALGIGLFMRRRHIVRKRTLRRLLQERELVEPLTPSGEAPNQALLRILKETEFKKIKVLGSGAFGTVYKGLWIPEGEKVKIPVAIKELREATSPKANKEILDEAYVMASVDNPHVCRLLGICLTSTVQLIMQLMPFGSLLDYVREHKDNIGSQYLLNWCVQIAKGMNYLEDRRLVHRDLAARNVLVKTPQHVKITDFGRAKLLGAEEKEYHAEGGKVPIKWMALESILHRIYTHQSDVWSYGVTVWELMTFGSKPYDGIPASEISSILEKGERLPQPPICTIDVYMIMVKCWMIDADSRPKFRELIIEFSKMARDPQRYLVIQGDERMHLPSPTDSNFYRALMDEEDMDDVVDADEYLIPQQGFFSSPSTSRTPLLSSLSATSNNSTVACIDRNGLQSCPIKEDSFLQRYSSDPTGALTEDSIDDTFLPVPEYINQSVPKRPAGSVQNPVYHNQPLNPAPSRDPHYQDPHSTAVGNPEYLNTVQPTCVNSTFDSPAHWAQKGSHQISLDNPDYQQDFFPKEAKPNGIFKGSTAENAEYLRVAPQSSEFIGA
How it was run: as §2

| SMILES | EGFR protein remaining, EGFR L858R/T790M double mutant [1] | EGFR protein remaining, EGFR Exon 20 ASV (EGFR Exon 20 ASV (HeLa*)) | EGFR protein remaining, EGFR-wt [2] | IC50 (EGFR Exon20NPG) [nM] | IC50 (EGFR Δ19/746/750) [nM] | IC50 (HER2WT) [nM] | IC50 (EGFR L858R) [nM] | IC50 (EGFR Δ19/746/750 T790M) [µM] | IC50 (EGFR WT) [nM] | IC50 (EGFR L858R/T790M) [µM] | IC50 (EGFR L858R/T790M/C797S) [µM] |
| --- | --- | --- | --- | --- | --- | --- | --- | --- | --- | --- | --- |
| Cc1ncsc1-c1ccc(CNC(=O)[C@@H]2C[C@@H](O)CN2C(=O)[C@@H](NC(=O)COCCOCCOCCOCCOCCN2CCN(Cc3ccc(-c4cc5c(NCc6ccccc6Cl)ncnc5[nH]4)cc3)CC2)C(C)(C)C)cc1 [compound 3] | C (>80% EGFR protein remaining after 72 hours of incubation with the test compound at a concentration of 300 nM) | C (>80% EGFR protein remaining after 72 hours of incubation with the test compound at a concentration of 300 nM) | C (>80% EGFR protein remaining after 72 hours of incubation with the test compound at a concentration of 300 nM) | 860 | 5.5 | 1500 | 24 | 6.6 | 210 | 14 | 14 |
| Cc1ncsc1-c1ccc(CNC(=O)[C@@H]2C[C@@H](O)CN2C(=O)[C@@H](NC(=O)COCCOCCOCCN2CCN(Cc3ccc(-c4cc5c(NCc6ccccc6Cl)ncnc5[nH]4)cc3)CC2)C(C)(C)C)cc1 [Example 1, (2S,4R)-1-((S)-2-(tert-butyl)-14-(4-(4-(4-((2-chlorobenzyl)amino)-7H-pyrrolo[2,3-d]pyrimidin-6-yl)benzyl)piperazin-1-yl)-4-oxo-6,9,12-trioxa-3-azatetradecanoyl)-4-hydroxy-N-(4-(4-methylthiazol-5-yl)benzyl)pyrrolidine-2-carboxamide] | C (>80% EGFR protein remaining after 72 hours of incubation with the test compound at a concentration of 300 nM) | C (>80% EGFR protein remaining after 72 hours of incubation with the test compound at a concentration of 300 nM) | C (>80% EGFR protein remaining after 72 hours of incubation with the test compound at a concentration of 300 nM) | 230 | 2.1 | 1200 | 14 | 6.1 | 65 | 12 | 4.5 |
| O=C1CCC(N2C(=O)c3cccc(NCCOCCOCCOCCOc4ccc(-c5cc6c(NCc7ccccc7Cl)ncnc6[nH]5)cc4)c3C2=O)C(=O)N1 (stereo not shown) [Example 10, 4-((2-(2-(2-(2-(4-(4-((2-chlorobenzyl)amino)-7H-pyrrolo[2,3-d]pyrimidin-6-yl)phenoxy)ethoxy)ethoxy)ethoxy)ethyl)amino)-2-(2,6-dioxopiperidin-3-yl)isoindoline-1,3-dione] | – | C (>80% EGFR protein remaining after 72 hours of incubation with the test compound at a concentration of 300 nM) | C (>80% EGFR protein remaining after 72 hours of incubation with the test compound at a concentration of 300 nM) | 3200 | 3700 | 3700 | 3500 | 28 | 1700 | 16 | 5.5 |
| Cc1ncsc1-c1ccc(CNC(=O)[C@@H]2C[C@@H](O)CN2C(=O)[C@@H](NC(=O)COCCN2CCN(Cc3ccc(-c4cc5c(NCc6ccccc6Cl)ncnc5[nH]4)cc3)CC2)C(C)(C)C)cc1 [compound 5] | C (>80% EGFR protein remaining after 72 hours of incubation with the test compound at a concentration of 300 nM) | C (>80% EGFR protein remaining after 72 hours of incubation with the test compound at a concentration of 300 nM) | C (>80% EGFR protein remaining after 72 hours of incubation with the test compound at a concentration of 300 nM) | 530 | 4.1 | 1500 | 11 | 7.3 | 40 | 19 | 5.4 |
